Reference: patent US5559209A, “Regulator regions of G proteins” (The General Hospital Corporation, priority 1993, dated 1996)
Where no end group is shown, it is not given here.

Legend:
[1] = system: somatostatin receptor/K+ channel linkage in human growth hormone-secreting pituitary adenoma cells; assay: Somatostatin-induced K+ currents, whole cell patch clamp; type: cell-based; conditions: 100 nM somatostatin, absence of anticouplone peptides
Protocol: Inhibition Of somatostatin receptor function. It is known that somatostatin induces K^+ channel activation in a manner sensitive to pertussis toxin in human growth hormone-secreting tumors (Yamashita et al., Am. J. Physiol. 253:E28-E32, 1987). The effect of each of ACGi2, ACGi3, ACGs, ACGo1, and ACGo2 on somatostatin-induced K^+ currents in human pituitary cells was measured using the patch clamp technique, as described below.
Three human growth hormone-secreting pituitary adenomas were obtained at transsphenoidal surgery. The tissue was minced into small pieces (less than 1 mm in diameter) and was treated with 1000 units/ml dispase (Wako, Japan). These dissociated cells (≈10^5 cells/ml) were seeded onto 35-mm culture dishes. […]
A whole cell variation of the patch electrode voltage clamp technique was used to record membrane currents (Hamill et al., Pfluger Arch. 391:85-100, […]). […] The liquid junction potential between the extracellular solution and the internal solution was directly measured using a 3M KCl electrode as a reference. […]
The intracellular solution that filled the inside of the pipet portion of the apparatus contained one of the following anticouplone peptides at 100 μM: ACGi2, ACGi3, ACGs, ACGo1, or ACGo2. The exterior of the cell was bathed with the extracellular solution containing 100 nM somatostatin while the outward K^+ current was monitored. […]

Gi2 = molecular target: T1, Gi2 (Bos taurus, UniProt A7MBH9); assay: GTPγS binding assay, peptide 14-induced Gi2 activation; type: biochemical, bovine; conditions: 10 μM peptide variant, 10 nM Gi2, 30 μM peptide 14
T1 construct: trimeric Gi2 (i.e., Gi2 αβγ) purified from bovine brain to near homogeneity; from tissue; host or cells: bovine brain
T1 sequence (A7MBH9 2-355 limits assumed): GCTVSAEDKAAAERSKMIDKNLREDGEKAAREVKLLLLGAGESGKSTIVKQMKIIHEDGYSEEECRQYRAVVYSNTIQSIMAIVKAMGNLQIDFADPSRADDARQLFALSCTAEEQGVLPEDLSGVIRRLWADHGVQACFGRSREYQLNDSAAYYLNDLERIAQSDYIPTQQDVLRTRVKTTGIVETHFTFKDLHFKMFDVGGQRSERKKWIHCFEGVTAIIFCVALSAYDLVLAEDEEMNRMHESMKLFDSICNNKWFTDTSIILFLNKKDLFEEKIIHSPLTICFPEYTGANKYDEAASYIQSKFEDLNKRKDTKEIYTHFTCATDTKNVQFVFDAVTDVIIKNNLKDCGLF
T1 sequence (P62871 2-340 partner limits assumed): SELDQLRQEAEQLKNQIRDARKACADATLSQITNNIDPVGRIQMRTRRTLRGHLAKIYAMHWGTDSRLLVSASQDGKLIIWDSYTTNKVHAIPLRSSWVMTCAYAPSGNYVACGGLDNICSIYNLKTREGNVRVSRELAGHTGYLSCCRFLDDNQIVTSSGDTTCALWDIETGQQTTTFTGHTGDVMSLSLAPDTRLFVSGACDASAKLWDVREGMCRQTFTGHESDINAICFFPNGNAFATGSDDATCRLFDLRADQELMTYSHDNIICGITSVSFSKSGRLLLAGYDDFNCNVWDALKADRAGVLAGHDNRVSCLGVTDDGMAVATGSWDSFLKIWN
T1 sequence (P63212 2-68 partner limits assumed): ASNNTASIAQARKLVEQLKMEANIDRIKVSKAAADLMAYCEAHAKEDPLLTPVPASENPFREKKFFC
Protocol: Materials and Methods The in vitro assays described below utilize the couplone portion of each of a number of G-coupled receptors, instead of an intact receptor molecule, as a means for activating the corresponding anticouplone or intact G-protein. Except as noted below, Gi2 used in this study was trimeric Gi2 (i.e., Gi2 αβγ) purified from bovine brain to near homogeneity (Katada et al., FEBS Lett. 213:353-358 (1987), stored in buffer A (20 mM hepes/NaOH (pH 7.4), 1 mM EDTA, and 0.7% CHAPS), and diluted≥10 fold for assays. The Gi2 used for the reconstitution experiment was trimeric Gi2 purified from bovine spleen to homogeneity and dissolved in buffer B (Morishita et al., 1989). Gi3 α (Morishita et al., Biochem. Biophys. Res. Commun. 172:249-255 (1990), was purified from bovine spleen and used in combination with 1.5-fold concentrated Gβγ (Katada et al., 1987). This preparation of Gi3 α was 10-20% contaminated by Gi1 α, but not by other G proteins. Trimeric Gs and Gβγ purified from bovine brain to near homogeneity (Katada et al., 1987) were also stored in buffer A.
GTPγS binding Assay--GTPγS binding to G proteins was assayed at 37° C. in 20 mM Hepes/NaOH buffer (pH 7.4) containing 130 μM MgCl2, 110 μM EDTA and 60 nM [^35 S]GTPγS, as described previously (Okamoto et al., 1990). GTPγS binding to polypeptides was negligible. The total amount of G protein was measured as maximal GTPγS binding at room temperature, as described (Okamoto et al., Cell 67:723-730, 1991a). [^35 S]GTPγS was purchased from DuPont-New England Nuclear. Binding of GTPγS to G proteins obeyed first-order kinetics according to the equation ln[(BT-B)/BT]=-kapp t, where B is the binding at time t and BT is the total binding observable at an infinite time. Thus, the apparent first-order rate constant for GTPγS binding (kapp), which is equal to the slope of the tangent to the GTPγS binding curve at time 0 and represents the actual GTPγS binding rate, was calculated from this equation.
In the experiment illustrated in FIG. 1A, 10 nM Gi2 was incubated with 30 μM peptide 14 (RVGLVRGEKARKGK; SEQ ID NO: 27), the couplone portion of the IGF-II receptor, in the presence of various concentrations of (.quadrature.) ACGi2 (DAVTDVIIKNNLKDC; SEQ ID NO: 3), (567 ) the control Gi2 α Glu297-Asp310 peptide (EAASYIQSKFEKLN; SEQ ID NO: 18), or (.diamond.) the control Gi2 α Lys346-Phe355 peptide (KNNLKDCGLF; SEQ ID NO: 19) for 5 min under the GTPγS binding assay conditions described above, and GTPγS binding to G proteins was measured. The effect of ACGi2 on Gi2 in the absence of peptide 14 is indicated by .box-solid.. Percent stimulation of GTPγS binding was calculated by subtracting the basal fractional binding and dividing by the stimulated fractional binding observed in the absence of ACGi2. The basal fractional binding (=0%) was 0.39 mol GTPγS binding/mol Gi /5 min (5 min^-1). The 100% increase represents the GTPγS binding of 0.85 (5 min^-1). Values in all figures represent the mean ±S.E. of three experiments.
To verify the notion that ACGi2 acts on Gi2 itself, and not on receptor sequences, two series of experiments were performed. First, the dose-response curve for peptide 14 action on Gi2 in the presence of various concentrations of ACGi2 was generated (FIG. 2A). Following incubation of 10 nM Gi2 with various concentrations of peptide 14 in the absence (.quadrature.) or presence of 10 μM (.diamond-solid.) or 30 μM (.box-solid.) ACGi2 for 5 min, GTPγS binding was assayed; fractional GTPγS binding to Gi2 is indicated in the figure.
The second series of experiments investigated the effect of ACGi2 on lower concentrations of Gi2 that had been activated by peptide 14 to the same extent (FIG. 2B). 1 nM Gi2 was incubated for 5 min with 3 μM peptide 14 in the presence of various concentrations of ACGi2, and GTPγS binding was measured. The fractional GTPγS binding at 0% and 100% in this experiment was 0.40 and 0.55 (5 min^-1), respectively. […]

T cell receptor = assay: OKT3-induced polyphosphoinositide turnover in Jurkat cells; type: cell-based, human; conditions: OKT3 1:100 for 5 min, no peptide
Protocol: Inhibition of T cell receptor function with ACGq. T cell receptor stimulation by monoclonal antibody OKT^3 in Jurkat cells, a line of human T cells, induces measurable polyphosphoinositide (PI) turnover. 10^7 cells were labelled with 5 μCi/ml [^3 H]myoinositol in inositol-free RPMI1640 for 12 hours. After incubating the cells with 500 μM ACGq, samples containing 5×10^5 cells were then exposed to the monoclonal antibody OKT3 (Ortho) at 1:100 dilution for 5 min. Perchloric acid was added to a final concentration of 10% to lyse the cells and terminate the reaction. Cell lysates were collected into tubes and brought to pH>8 by the addition of KOH. Following centrifugation of the lysates, the supernatants were passed over a DOWX anion exchange column (Muromachi Chemicals, Japan) to separate inositol polyphosphates (IPs) from other inositol metabolites, and the amount of [^3 H] label in the inositol trisphosphate (IP3) fraction assessed.

[2] = system: NRK (rat renal fibroblast) cells; assay: TGFβ-induced fibronectin secretion, immunoblot; type: cell-based; conditions: 50 pM TGFβ, 12 hours
Source text: Inhibition of TGFβ-induced matrix formation. The secretion of matrix proteins (in particular, fibronectin) by kidney, lung and liver cells may lead to sclerosis of those organs. Transforming growth factor-β (TGFβ), which stimulates the secretion of fibronectin, may therefore contribute to such sclerosis. Since the TGFβ receptor is a Go2 -coupled receptor, the ability of ACGo2 to inhibit the TGFβ-induced stimulation of fibronectin secretion by NRK (rat renal fibroblast) cells (Ignotz and Massague, J. Biol. Chem. 261:4337-4345, 1986) was assayed.
NRK cells were cultured in RPMI 1640 supplemented with 5% FCS in a CO2 -incubator at 37° C. The medium was replaced every two days. Cells were regularly subcultured by trypsin-EDTA before reaching confluency. In the experiments described below, the cells were grown in monolayer to confluency in 6-well culture plates (Corning, N.Y.), then incubated for 12 hours with RPMI 1640 plus 0.5% FCS, and for a further 12 hours with RPMI 1640 plus 0.5% FCS in the presence or absence of 50 pM TGFβ (R & D System, Minneapolis, Minn.), to which was added 100 μM ACGi2, ACGs, ACGo2, or ACGq. The medium from each well was collected and frozen at -20° C. until assay. Fibronectin secreted into each sample of medium was assessed by immunoblot as follows: […]

Compound	inhibition at 10 µM (Gi2)	other results
C[C@H](N)C(=O)NCC(=O)N[C@H]1CSSC[C@@H](C(=O)O)NC(=O)[C@H](CO)NC(=O)[C@H]([C@@H](C)O)NC(=O)[C@H](Cc2ccccc2)NC(=O)[C@H]([C@@H](C)O)NC(=O)[C@H](CCCCN)NC(=O)[C@H](Cc2c[nH]c3ccccc23)NC(=O)[C@H](Cc2ccccc2)NC(=O)[C@H](Cc2ccccc2)NC(=O)[C@H](CC(N)=O)NC(=O)[C@H](CCCCN)NC1=O [somatostatin]		K+ current induced over baseline [1]: approximately 20 pA
AAVTDVIIKNNLKDC [A1 variant, AAVTDVIIKNNLKDC]	≥ 30%	
DAVTAVIIKNNLKDC [A2 variant, DAVTAVIIKNNLKDC]	≥ 80%	
DAVTDVIIK [p9 variant, DAVTDVIIK]	≥ 30%	
DAVTDVIIKANLKDC [A3 variant, DAVTDVIIKANLKDC]	≥ 30%	
DAVTDVIIKNNLKAC [A5 variant, DAVTDVIIKNNLKAC]	≥ 80%	
DAVTDVIIKNNLKD [del C variant, DAVTDVIIKNNLKD]	≥ 30%	
OKT3: monoclonal antibody OKT3 (Ortho) stimulating the T cell receptor		[3H] incorporation into IP relative to control cells not exposed to OKT3 (T cell receptor): 157%
TGFβ: Transforming growth factor-β, which stimulates the secretion of fibronectin		fibronectin secreted by cells exposed to TGFβ [2]: significant amount of fibronectin is secreted
